This is an account of results in ChEMBL document CHEMBL4219153, “Identification of second-generation P2X3 antagonists for treatment of pain” (Bioorg Med Chem Lett, 2018).

Series [1] in a line: Protein binding in rat plasma. It counts as ADME, cell-free. The settings on record: read-out: PPB (converted).
Series [2] concerns the target T1, P2X purinoceptor 3 (Homo sapiens) (UniProt P56373).
T1 sequence (whole entry): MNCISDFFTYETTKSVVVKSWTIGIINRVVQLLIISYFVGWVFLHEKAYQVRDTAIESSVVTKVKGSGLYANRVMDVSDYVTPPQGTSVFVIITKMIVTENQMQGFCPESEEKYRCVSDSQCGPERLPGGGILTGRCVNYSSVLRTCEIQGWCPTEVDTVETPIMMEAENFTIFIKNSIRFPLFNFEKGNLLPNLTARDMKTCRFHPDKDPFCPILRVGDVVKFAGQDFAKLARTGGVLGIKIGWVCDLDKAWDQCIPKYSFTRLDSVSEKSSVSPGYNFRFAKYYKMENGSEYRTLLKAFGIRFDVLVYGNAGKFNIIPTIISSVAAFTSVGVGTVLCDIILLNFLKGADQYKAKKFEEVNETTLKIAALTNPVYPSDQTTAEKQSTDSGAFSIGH
As to the kind of experiment: Antagonist activity at recombinant human P2X3 receptor expressed in Flp-In-293 cells assessed as inhibition of alphabeta-meATP-induced calcium flux preincubated for 10 mins followed by alphabeta-meATP addition measured at 5 sec intervals by Fluo-4 dye based FLIPR assay. It counts as cell-based. (In general: Calcium flux is commonly read through the fluorescence of an indicator in the cells.)

Series [3] addresses T2, Nuclear receptor subfamily 1 group I member 2 (Homo sapiens, UniProt O75469).
T2 sequence (O75469 whole entry): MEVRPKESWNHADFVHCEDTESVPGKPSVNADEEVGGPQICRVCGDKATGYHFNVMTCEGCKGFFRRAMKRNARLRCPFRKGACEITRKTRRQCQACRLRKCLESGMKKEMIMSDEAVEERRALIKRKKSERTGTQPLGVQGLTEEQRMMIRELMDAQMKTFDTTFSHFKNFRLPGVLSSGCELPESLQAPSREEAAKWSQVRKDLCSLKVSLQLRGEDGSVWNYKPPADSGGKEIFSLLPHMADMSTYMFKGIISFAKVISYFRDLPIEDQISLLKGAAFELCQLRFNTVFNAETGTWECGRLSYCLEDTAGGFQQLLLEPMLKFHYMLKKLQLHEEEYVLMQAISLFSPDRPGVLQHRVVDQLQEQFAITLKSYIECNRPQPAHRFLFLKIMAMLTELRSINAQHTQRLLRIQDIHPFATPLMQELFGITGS
As to the kind of experiment: Activation of PXR (unknown origin). It counts as ADME.

The target of another series is Cytochrome P450 2C9 (Homo sapiens, UniProt P11712). Kind of series: Inhibition of CYP2C9 (unknown origin). It counts as ADME.
The nature of series [4]: Intrinsic clearance in rat. Format: ADME, organism-based. Conditions: in vivo.
The nature of series [5]: Half life in rat. The settings on record: in vivo. It counts as ADME, organism-based.
Series [6] deals with T3, UDP-glucuronosyltransferase 1A1 (Homo sapiens, UniProt P22309).
T3 sequence (P22309 whole entry): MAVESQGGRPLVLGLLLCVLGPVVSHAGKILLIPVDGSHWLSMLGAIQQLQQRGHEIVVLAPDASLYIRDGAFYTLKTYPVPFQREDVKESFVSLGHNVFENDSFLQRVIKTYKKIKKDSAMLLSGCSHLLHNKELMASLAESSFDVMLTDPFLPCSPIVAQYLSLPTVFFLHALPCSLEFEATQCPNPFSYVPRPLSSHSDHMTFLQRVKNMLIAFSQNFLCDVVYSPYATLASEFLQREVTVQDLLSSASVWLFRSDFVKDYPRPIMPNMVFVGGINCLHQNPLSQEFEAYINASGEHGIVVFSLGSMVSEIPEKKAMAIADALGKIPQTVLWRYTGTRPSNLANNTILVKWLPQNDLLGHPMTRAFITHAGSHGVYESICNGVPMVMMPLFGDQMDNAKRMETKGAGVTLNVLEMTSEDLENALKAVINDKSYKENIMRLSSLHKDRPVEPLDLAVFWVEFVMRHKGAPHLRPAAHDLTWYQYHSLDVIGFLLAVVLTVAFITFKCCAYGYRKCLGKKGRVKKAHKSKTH
Kind of series: Inhibition of UGT1A1 in human liver microsomes assessed as decrease in estradiol-3 glucuronidation. It counts as ADME. (In general: Liver microsomes are vesicles of endoplasmic reticulum, rich in cytochrome P450 enzymes.)

A further series deals with Rattus norvegicus. As to the kind of experiment: Antinociceptive activity in complete freund's adjuvant induced mechanical hypersensitivity Sprague-Dawley rat model assessed as reversal of mechanical hyperalgesia by measuring hind paw withdrawal thresholds at 60 mg/kg, po. It counts as functional.
Series [7] in a line: Oral bioavailability in rat. It counts as ADME, organism-based. The settings on record: in vivo.
Series [8] in a line: Half life in dog. It counts as ADME, organism-based, Canis lupus familiaris. The settings on record: in vivo.
The nature of series [9]: Oral bioavailability in dog. It counts as ADME, organism-based, Canis lupus familiaris. The settings on record: in vivo.
Another series concerns the target T4, P2X purinoceptor 3 (Homo sapiens, UniProt P56373).
T4 sequence (P56373 whole entry): T1 sequence (whole entry)
Kind of series: Antagonist activity at recombinant human P2X3 receptor expressed in Flp-In-293 cells assessed as inhibition of CTP-induced […] current response preincubated for 2 mins followed by CTP addition along with test compound by whole cell patch-clamp method. It counts as cell-based. For orientation: In patch-clamp work, channel activity is measured electrically.

Series [10] can be described thus: Intrinsic clearance in dog. Format: ADME, organism-based, Canis lupus familiaris. Conditions: in vivo.
Series [11] in a line: Protein binding in dog plasma. It counts as ADME, cell-free, Canis lupus familiaris. Conditions: read-out: PPB (converted).
A short description of series [12]: Oral bioavailability in rhesus monkey. Format: ADME, organism-based, Macaca mulatta. Conditions: in vivo.
In a further series the target is T5, PXR (Homo sapiens, UniProt O75469).
T5 sequence (O75469 whole entry): T2 sequence (O75469 whole entry)
Kind of series: Activation of PXR (unknown origin) at 10 uM relative to control. Format: ADME. Conditions: read-out: Activity.

Series [13] has as its target T3, UDP-glucuronosyltransferase 1A1. As to the kind of experiment: Inhibition of human UGT1A1 expressed in baculovirus infected insect cells using bilirubin as substrate measured after 10 mins by HPLC analysis. It counts as ADME.

Chain of Cytochrome P450 2C9 (P11712 whole entry): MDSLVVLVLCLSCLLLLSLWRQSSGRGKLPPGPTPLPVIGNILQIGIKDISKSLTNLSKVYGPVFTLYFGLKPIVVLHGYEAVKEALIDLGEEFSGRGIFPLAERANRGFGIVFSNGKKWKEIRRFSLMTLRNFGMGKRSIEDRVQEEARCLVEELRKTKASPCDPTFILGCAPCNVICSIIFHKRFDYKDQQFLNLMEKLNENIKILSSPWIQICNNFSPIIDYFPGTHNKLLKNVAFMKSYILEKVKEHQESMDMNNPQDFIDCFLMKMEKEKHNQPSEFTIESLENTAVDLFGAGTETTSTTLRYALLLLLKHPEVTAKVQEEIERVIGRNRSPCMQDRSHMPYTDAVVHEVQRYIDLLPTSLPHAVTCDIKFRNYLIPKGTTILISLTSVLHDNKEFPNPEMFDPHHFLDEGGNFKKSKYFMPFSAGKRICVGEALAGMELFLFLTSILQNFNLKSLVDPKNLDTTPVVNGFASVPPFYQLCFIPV

Regarding `Cc1ccc(-c2cc(C(=O)N[C@H](C)c3ccc(C(F)(F)F)[n+]([O-])c3)cc(C(C)(C)O)c2)nc1`, in series [1], the fraction unbound was 0.376. Further, the IC50 is 5 nM in series [2] and above 50000 nM against Cytochrome P450 2C9. This compound also registered an EC50 in series [3] above 30000 nM.

With `C[C@@H](NC(=O)c1cc(-c2ccc(Cl)cc2)cc(C(C)(C)O)c1)c1ccc(C(F)(F)F)[n+]([O-])c1`, in [1], the fraction unbound was 0.026. The CLint scaled in series [4] came out at 214 mL/min/kg. Also, the IC50 in [2] was found to be 21 nM. In [5], this compound showed a half-life of 2.4 h.

With `Cc1ccc(-c2cc(C(=O)N[C@H](C)c3ccc(C(F)(F)F)nc3)cc(-c3ncccc3F)c2)nc1`, in series [1], the fraction unbound was 0.014. Moreover, the IC50 in [2] came out at 8 nM.

Consider `Cc1ccc(-c2cc(C(=O)N[C@@H](C)c3nc(C)no3)cc(-c3ncccc3F)c2)nc1`, for which the IC50 in series [2] came out at 17 nM.

On to `Cc1ccc(-c2cc(C(=O)N[C@H](C)c3ccc(F)cn3)cc(-n3nccn3)c2)nc1`, for which the fraction unbound in series [1] is 0.026. Also, in series [4], the intrinsic metabolic clearance (CLint scaled) amounted to 3910 mL/min/kg. Also, the IC50 in series [2] was determined as 37 nM.

In the case of `C[C@@H](NC(=O)c1cc(-c2ccc(Cl)cn2)cc(C(C)(C)O)c1)c1ccc(C(F)(F)F)[n+]([O-])c1`, the IC50 in [6] was above 20000 nM; on P2X purinoceptor 3, 18 nM; in series [2], 14 nM; at Cytochrome P450 2C9 it was 82000 nM. The fraction unbound in series [1] is 0.238; in [11] it was 0.263. In addition, in the series with Rattus norvegicus, the EC90 worked out at 160 nM. Also, the bioavailability turned out to be 13% in series [7] and 63% in series [9]. Also, the CLint scaled came out at 69 mL/min/kg in series [4] and 7.7 mL/min/kg in [10]. Moreover, the half-life in series [8] was 3.9 h; in [5], 1.3 h. In series [3], the EC50 was above 30000 nM.

In the case of `Cc1ccc(-c2cc(C(=O)N[C@H](C)c3ccc(F)c[n+]3[O-])cc(-c3ncccc3F)c2)nc1`, the fraction unbound in [1] was 0.096. Besides, the IC50 in series [2] stood at 2 nM.

Consider `Cc1ccc(-c2cc(C(=O)N[C@H](C)c3ccc(C(F)(F)F)[n+]([O-])c3)cc(C(C)(C)O)c2)cc1`, for which the fraction unbound in series [1] was 0.046. The compound further yielded a CLint scaled in series [4] of 6790 mL/min/kg. Also, the IC50 in [2] stood at 20 nM. Further, the half-life in series [5] is 0.2 h.

`Cc1ccc(-c2cc(C(=O)NCc3nc(C(C)C)no3)cc(-c3ncccc3F)c2)nc1`: the IC50 in series [2] was 155 nM.

Regarding `Cc1ccc(-c2cc(C(=O)NCCc3nc(C)no3)cc(-c3ncccc3F)c2)nc1`, the IC50 in [2] was found to be 45 nM.

`Cc1ccc(-c2cc(C(=O)N[C@H](C)c3nc(C)no3)cc(-c3ncccc3F)c2)nc1`: in series [1], the fraction unbound is 0.004. Further, the IC50 in series [2] was 3 nM.

As for `Cc1ccc(-c2cc(C(=O)N[C@H](C)c3ccc(F)cn3)cc(N3CCOCC3)c2)nc1`, the fraction unbound in [1] was 0.149. In series [4], the CLint scaled was 533 mL/min/kg. For the same compound, the IC50 in [2] is 47 nM. Also, the EC50 in [3] is above 30000 nM.

For the compound `Cc1ccc(-c2cc(C(=O)N[C@@H](c3nc(C)no3)C3CC3)cc(-c3ncccc3F)c2)nc1`, the IC50 in series [2] was found to be 30 nM.

Take `Cc1ccc(-c2cc(C(=O)N[C@H](C)c3nnc[nH]3)cc(-c3ncccc3F)c2)nc1`: the IC50 in [2] was found to be 284 nM.

For `Cc1ccc(-c2cc(C(=O)N[C@H](C)c3ccc(F)cn3)cc(-c3ncccc3F)c2)nc1`, the fraction unbound in series [1] was 0.008. In addition, the CLint scaled in [4] was 24800 mL/min/kg. For the same compound, the IC50 in series [2] came to 8 nM. It took 6000 nM to reach a half-maximal effect in series [3] (EC50).

For `Cc1ccc(-c2cc(C(=O)N[C@H](C)c3ccc(F)cn3)cc(C3=NO[C@H](c4ccccn4)C3)c2)nc1`, the fraction unbound in series [1] was 0.016. Besides, the EC90 in the series with Rattus norvegicus worked out at 3000 nM. Moreover, the bioavailability came out at 47% in series [12], 60% in [7] and 68% in series [9]. Further, in series [4], the intrinsic metabolic clearance (CLint scaled) worked out at 133 mL/min/kg. Also, the half-inhibitory concentration (IC50) on P2X purinoceptor 3 was 24 nM; in series [2] it was 21 nM; in [13], 1000 nM; on Cytochrome P450 2C9, 5700 nM. Further, the activity at 10 µM at PXR stood at 47%. In [5], this compound had a half-life of 1 h.

On to `Cc1ccc(-c2cc(C(=O)N[C@H](C)c3ccc(F)cn3)cc(C(C)(C)O)c2)nc1`, for which the fraction unbound in series [1] was 0.18. Also, the IC50 in series [2] is 67 nM. This compound displayed an EC50 in series [3] of 2000 nM.

Consider `Cc1ccc(-c2cc(C(=O)NC3(c4nc(C)no4)CC3)cc(-c3ncccc3F)c2)nc1`, for which the IC50 in [2] came out at 170 nM.

As to `C[C@@H](NC(=O)c1cc(-c2ccc(F)cn2)cc(C(C)(C)O)c1)c1ccc(C(F)(F)F)[n+]([O-])c1`, the fraction unbound in series [1] was 0.447. Moreover, the CLint scaled in series [4] came to 477 mL/min/kg. Also, the IC50 in series [2] stood at 82 nM. The compound also gave a half-life in [5] of 0.48 h.

Take `Cc1ccc(-c2cc(C(=O)N[C@H](C)c3ccc(C(F)(F)F)nc3)cc(C(C)(C)O)c2)nc1`: the fraction unbound in series [1] was 0.048. For the same compound, the IC50 was 14 nM in series [2] and 19000 nM at Cytochrome P450 2C9. Moreover, a half-maximal response in series [3] (EC50) required 18000 nM.

On to `Cc1ccc(-c2cc(C(=O)N[C@@H](C)c3nnc[nH]3)cc(-c3ncccc3F)c2)nc1`, for which the fraction unbound in series [1] was 0.012. In addition, the IC50 in series [2] amounted to 10 nM.

Regarding `Cc1ccc(-c2cc(C(=O)N[C@H](C)c3ccc(C(F)(F)F)[n+]([O-])c3)cc(-c3ncccc3F)c2)nc1`, the fraction unbound in series [1] is 0.048. Also, the IC50 in series [2] came to 5 nM.

As a reminder, the IC50 is the concentration needed to halve the response being measured. The EC50 is the concentration at which the effect is half-maximal. A word on the CLint scaled: it is the rate of metabolic loss divided by the concentration. One may read the half-life as how long it takes for the measured level to halve. In general, EC90 refers to the concentration needed for an effect of 90%. By bioavailability is commonly meant the share of a dose that reaches the circulation, judged against a reference dose that is usually intravenous.
